Experimental data reported in patent publication US6362212B1, “Oxime derivative and bactericide containing the same as active ingredient” (Shionogi & Company, Ltd., priority 1994, dated 2002).

Key:
Format in all cases: in vivo
Sphaerotheca fuliginea = assay: Controlling effect on Sphaerotheca fuliginea by foliage application (pot experiment); details: foliage spray on cucumber (cv. TSUKUBASHIROIBO) first leaves, infected area after 10 days in greenhouse at 20° C.
Procedure: The following Test Examples illustrate the effects of the fungicide of the present invention. (I. Controlling effects on various plant diseases by foliage application (pot experiment)) A test compound was dissolved in a small amount of N,N-dimethylformamide, and the solution was diluted to a given concentration with distilled water containing a spreader. Thus, a liquid sample to be tested was prepared. The liquid sample was sprayed to test plants, and 24 hours thereafter, pathogens were inoculated by the method described below. […] Seeds of cucumber ([…]) were sown in plastic cups (each 9 cm in diameter), followed by cultivation for 2 to 3 weeks. The liquid test sample in the form of a solution or suspension was sprayed on the surface of their first leaves. The pathogen was inoculated to the leaves by spraying a conidia suspension of Sphaerotheca fuliginea which had been cultured on the cucumber leaves. After the inoculation, the plants were kept in a greenhouse at 20° C. for 10 days. Then, the infected area on the leaf was observed, and the percent control was calculated.

[1] = system: Erysiphe graminis f. sp. tritici; assay: Controlling effect on Erysiphe graminis f. sp. tritici by foliage application (pot experiment); details: foliage spray on wheat (cv. NORIN No. 61) seedlings, infected area after 10 days in greenhouse at 20° C.
Procedure: The following Test Examples illustrate the effects of the fungicide of the present invention. (I. Controlling effects on various plant diseases by foliage application (pot experiment)) A test compound was dissolved in a small amount of N,N-dimethylformamide, and the solution was diluted to a given concentration with distilled water containing a spreader. Thus, a liquid sample to be tested was prepared. The liquid sample was sprayed to test plants, and 24 hours thereafter, pathogens were inoculated by the method described below. […] The seeds of wheat (cv.: NORIN No. 61) were sown in plastic cups (each 9 cm in diameter), followed by cultivation for 2 to 3 weeks. The test compound in the form of a solution or suspension was sprayed to the seedlings, and conidia of Erysiphe graminis f. sp. tritici cultured on wheat leaves were dropped on the test plants to inoculate the plants with the pathogen. After the inoculation, the plants were kept in a greenhouse at 20° C. for 10 days. The infected area on the leaf was observed, and the percent control was calculated.

Pyricularia oryzae = details: foliage spray on rice seedlings (cv. […]), number of lesions six days after the inoculation

Structure (SMILES)	Controlling effect on Sphaerotheca fuliginea by foliage application at 500 ppm (percent control) (Sphaerotheca fuliginea)	Controlling effect on ErYsiphe graminis f. sp. tritici by foliage application at 500 ppm (percent control) [1] [percent control]	Controlling effect on PYricularia orYzae by foliage application at 500 ppm (percent control) (Pyricularia oryzae)
CON=C(C1=NCCN1C)c1ccccc1Oc1ccccc1 (mixture of isomers) [compound 1161]	70	90	
CON=C(C1=NCCN1)c1ccccc1COc1cccc(C)c1 (mixture of isomers) [compound 1461]			70
CON=C(C1=NCCS1)c1ccccc1Oc1ccccc1 (mixture of isomers) [compound 1515]	70	90	
CON=C(c1ccccc1COc1ccc(F)cc1)c1nccn1C (single isomer, unassigned) [104A]	97	90	
CON=C(c1ccccc1COc1ccccc1OC)c1nccn1C (single isomer, unassigned) [118B]			70
CON=C(c1cc(C)no1)c1ccccc1COc1ccccc1Cl (single isomer, unassigned) [605B]	100	90	
CON=C(c1cc(C)no1)c1ccccc1COc1ccc(Cl)cc1C (single isomer, unassigned) [641B]	100	90	
CON=C(c1ncon1)c1ccccc1COc1cc(C)ccc1C (single isomer, unassigned) [836A]	100	97	
CON=C(c1ncon1)c1ccccc1COc1cc(C)ccc1C (single isomer, unassigned) [836B]	100	97	
CON=C(c1noc(C)n1)c1ccccc1COc1cc(C)ccc1C (single isomer, unassigned) [936B]	97	90	
CON=C(C1=NCCN1C)c1ccccc1COc1cccc(C(F)(F)F)c1 (single isomer, unassigned) [1122B]	100	90	
CON=C(C1=NCCO1)c1ccccc1Oc1ccccc1 (single isomer, unassigned) [1341A]	70	90	
CON=C(C1=NCCO1)c1ccccc1Oc1ccccc1 (single isomer, unassigned) [1341B]	70	90	
CON=C(c1ccco1)c1ccccc1COc1cc(C)ccc1C (single isomer, unassigned) [1634A]	100	97	
CON=C(c1ccccc1COc1ccc(Cl)cc1)n1cnc(C)c1 [Compound No. 227]	97	70	
O=C1OCc2c(Cl)c(Cl)c(Cl)c(Cl)c21 [Fthalide, reference compound]			97
CON=C(c1ccccc1COc1ccccc1Cl)n1cnc(C)c1 [compound 225]			70

Structure (SMILES)	Controlling effect on Sphaerotheca fuliginea by foliage application at 500 ppm (percent control) (Sphaerotheca fuliginea)	Controlling effect on ErYsiphe graminis f. sp. tritici by foliage application at 500 ppm (percent control) [1] [percent control]	Controlling effect on PYricularia orYzae by foliage application at 500 ppm (percent control) (Pyricularia oryzae)
CON=C(c1ccccc1COc1ccccc1)n1ccnc1C [compound 241]			70
CON=C(c1ccccc1COc1ccc(C)cc1)n1cncn1 [compound 270]	97	90	
CON=C(c1ccccc1COc1ccc(Cl)cc1)n1cccn1 [compound 287]			90
CON=C(c1nnco1)c1ccccc1COc1ccc(Cl)cc1 [compound 707]	100	90	
CON=C(C1=NCCN1C)c1ccccc1COc1ccccc1 [compound 1101]		90	
CON=C(C1=NCCN1C)c1ccccc1COc1ccc(C)cc1 [compound 1114]	70	70	
CON=C(C1=NCCN1C)c1ccccc1COc1ccccc1C(F)(F)F [compound 1121]	100	90	
CON=C(C1=NCCN1C)c1ccccc1COc1ccc(C(F)(F)F)cc1 [compound 1123]	90	90	
CON=C(C1=NCCO1)c1ccccc1COc1cccc(C)c1 [compound 1311]	70	70	
CON=C(c1ncc[nH]1)c1ccccc1COc1cc(C)ccc1C [compound 1428]	100	70	
CON=C(C1=NCCN1)c1ccccc1COc1ccccc1Cl [compound 1455]		70	
CON=C(C1=NCCS1)c1ccccc1COc1cc(C)ccc1C [compound 1514]	97	70	
CON=C(c1cc(C)ns1)c1ccccc1COc1cc(C)ccc1C [compound 1654]		70	
CON=C(c1cnco1)c1ccccc1COc1cc(C)ccc1C [compound 1734]	90	70	
CON=C(c1cnco1)c1ccccc1Oc1ccccc1 [compound 1735]	100	97	
CON=C(C1=NCCO1)c1ccccc1Oc1ncc(C(F)(F)F)cc1Cl [compound 1829]		90	
CON=C(c1nnn(C)n1)c1ccccc1COc1ccccc1C [compound 2012]	100	70	
